Experiments:
Type in all cases: in vivo
[1] = system: Scirpus juncoides; test: Test Example 2: herbicidal effect test by application during growth period of paddy rice; conditions: Schoenoplectiella juncoides; 120 g per 10 ares; applied seven days after sowing, flooded pots; 14 days after application; read-out: weed inhibition rate
Procedure, shortened: (§1)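 Steps: puddle fertilized paddy soil; sow 30 seeds of each weed at 0–1 cm; flood to roughly 3 cm and keep in a glasshouse; at day 7 drop in diluted emulsifiable concentrate (120 g a.i. per 10 ares); score inhibition (%) 14 days later, two replicates.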

[2] = system: Echinochloa crus-galli var. formosensis; test: as above; conditions: Echinochloa crus-galli; 120 g per 10 ares; applied seven days after sowing, flooded pots; 14 days after application; read-out: weed inhibition rate
Procedure, shortened: as §1

[3] = system: Monochoria vaginalis; test: as above; conditions: Pontederia vaginalis; 120 g per 10 ares; applied seven days after sowing, flooded pots; 14 days after application; read-out: weed inhibition rate
Procedure, shortened: as §1

[4] = system: Echinochloa crus-galli; test: Test Example 8: herbicidal effect test by stem and leaf treatment in upland field (low dose); conditions: Echinochloa crus-galli; 7.5 g per 10 ares; sprayed seven days after sowing, upland soil; 14 days after application; read-out: weed inhibition rate
[5] = system: Digitaria ciliaris; test: as above; conditions: Digitaria ciliaris; 7.5 g per 10 ares; sprayed seven days after sowing, upland soil; 14 days after application; read-out: weed inhibition rate
[6] = system: Monochoria vaginalis; test: Test Example 1: herbicidal effect test by soil application in paddy rice; conditions: Pontederia vaginalis, soil, 336 h; 120 g active ingredient per 10 ares; applied immediately after sowing, flooded pots; 14 days after application; read-out: weed inhibition rate
Procedure, shortened: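 Pre-emergence test in puddled, flooded paddy soil (about 3 cm water), 30 seeds per weed sown at 0–1 cm depth in a glass greenhouse. Emulsifiable concentrate diluted in water and dropped onto the pots straight after sowing at 120 g a.i. per 10 ares. Weed inhibition (%) scored at 14 days, in duplicate.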

[7] = system: Echinochloa crus-galli; test: Test Example 3: herbicidal effect test by soil application in upland field; conditions: Echinochloa crus-galli, 120 g per 10 ares, sprayed one day after sowing, 14 days after application, read-out: weed inhibition rate
Procedure, shortened: (§2)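 Pre-emergence test: seeds mixed into top 1 cm of alluvial loam upland soil in pots; emulsifiable concentrate diluted in water sprayed on soil one day after sowing at 100 L/10 a, 120 g a.i./10 a. Weed inhibition rate (%) scored at 14 days, in duplicate.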

[8] = system: Chenopodium album; test: as above; conditions: 120 g per 10 ares, sprayed one day after sowing, 14 days after application, read-out: weed inhibition rate
Procedure, shortened: as §2

[9] = system: Digitaria ciliaris; test: as above; conditions: Digitaria ciliaris, 120 g per 10 ares, sprayed one day after sowing, 14 days after application, read-out: weed inhibition rate
Procedure, shortened: as §2

[10] = system: Scirpus juncoides; test: Test Example 6: herbicidal effect test by application during growth period of paddy rice (low dose); conditions: Schoenoplectiella juncoides; 7.5 g per 10 ares; applied seven days after sowing, flooded pots; 14 days after application; read-out: weed inhibition rate
Procedure, shortened: (§3)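 Low-dose water application, 7.5 g a.i. per 10 ares, given by dropper into flooded pots (about 3 cm depth) 7 days after sowing of 30 weed seeds each at 0–1 cm. Evaluation of inhibition (%) took place 14 days later, duplicate per rate.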

[11] = system: Monochoria vaginalis; test: as above; conditions: Pontederia vaginalis; 7.5 g per 10 ares; applied seven days after sowing, flooded pots; 14 days after application; read-out: weed inhibition rate
Procedure, shortened: as §3

[12] = system: Amaranthus viridis; test: Test Example 3: herbicidal effect test by soil application in upland field; conditions: Amaranthus viridis, 120 g per 10 ares, sprayed one day after sowing, 14 days after application, read-out: weed inhibition rate
Procedure, shortened: as §2

CC(C)[C@]12C[C@@H](OCc3c(F)cccc3F)[C@](C)(CC1C)O2 (stereo partly drawn) [1-111, (1S,2R,4R)-2-((2,6-difluorobenzyl)oxy)-4-isopropyl-1,5-dimethyl-7-oxabicyclo[2.2.1]heptane]
≥ 80%: inhibition at 1200 g/ha [1] | inhibition at 1200 g/ha [2] | inhibition at 1200 g/ha [3] | inhibition at 75 g/ha [4] | inhibition at 75 g/ha [5] | pest or weed control at 1200 g/ha [6] | inhibition at 1200 g/ha [7] | inhibition at 1200 g/ha [8] | inhibition at 1200 g/ha [9]

Cc1ccccc1CO[C@@H]1C[C@]2(C(C)C)O[C@@]1(C)CC2C (stereo partly drawn) [1-83, (1S,2R,4R)-4-isopropyl-1,5-dimethyl-2-((2-methylbenzyl)oxy)-7-oxabicyclo[2.2.1]heptane]
≥ 80%: inhibition at 1200 g/ha [1] | inhibition at 1200 g/ha [2] | inhibition at 1200 g/ha [3] | inhibition at 75 g/ha [4] | inhibition at 75 g/ha [5] | pest or weed control at 1200 g/ha [6] | inhibition at 75 g/ha [10] | inhibition at 75 g/ha [11] | inhibition at 1200 g/ha [7] | inhibition at 1200 g/ha [8] | inhibition at 1200 g/ha [9]

Cc1ccccc1CO[C@@H]1C[C@]2(C(C)C)O[C@@]1(C)C[C@@H]2F [1-2, (1R,2S,4S,5R)-2-fluoro-1-isopropyl-4-methyl-5-((2-methylbenzyl)oxy)-7-oxabicyclo[2.2.1]heptane]
≥ 80%: inhibition at 1200 g/ha [1] | inhibition at 1200 g/ha [2] | inhibition at 1200 g/ha [3] | inhibition at 75 g/ha [4] | inhibition at 75 g/ha [5] | pest or weed control at 1200 g/ha [6] | inhibition at 75 g/ha [10] | inhibition at 75 g/ha [11] | inhibition at 1200 g/ha [7] | inhibition at 1200 g/ha [8] | inhibition at 1200 g/ha [9]

CC(C)[C@]12C[C@@H](OCc3ccccc3F)[C@](C)(C[C@@H]1Br)O2 [1-19, (1S,2R,4R,5S)-5-bromo-2-[(2-fluorophenyl)methoxy]-1-methyl-4-isopropyl-7-oxabicyclo[2.2.1]heptane]
≥ 80%: inhibition at 1200 g/ha [1] | inhibition at 1200 g/ha [2] | inhibition at 1200 g/ha [3] | inhibition at 75 g/ha [4] | inhibition at 75 g/ha [5] | pest or weed control at 1200 g/ha [6] | inhibition at 1200 g/ha [7] | inhibition at 1200 g/ha [8] | inhibition at 1200 g/ha [9]

Cc1ccccc1CO[C@@H]1C[C@@]2(C(C)C)C=C[C@]1(C)O2 [3-2, (1R,4S,5R)-4-methyl-5-[(2-methylphenyl)methoxy]-1-isopropyl-7-oxabicyclo[2.2.1]hept-2-ene]
≥ 80%: inhibition at 1200 g/ha [1] | inhibition at 1200 g/ha [2] | inhibition at 1200 g/ha [3] | inhibition at 75 g/ha [4] | pest or weed control at 1200 g/ha [6] | inhibition at 75 g/ha [10] | inhibition at 75 g/ha [11] | inhibition at 1200 g/ha [7] | inhibition at 1200 g/ha [9] | inhibition at 1200 g/ha [12]

CC(C)[C@]12C[C@@H](OCc3ccccc3F)[C@](C)(C[C@@H]1OCc1ccccc1F)O2 [1-603, (1S,2R,4R,5S)-2,5-bis[(2-fluorophenyl)methoxy]-1-methyl-4-isopropyl-7-oxabicyclo[2.2.1]heptane]
≥ 80%: inhibition at 1200 g/ha [1] | inhibition at 1200 g/ha [2] | inhibition at 1200 g/ha [3] | pest or weed control at 1200 g/ha [6] | inhibition at 75 g/ha [11] | inhibition at 1200 g/ha [7] | inhibition at 1200 g/ha [8] | inhibition at 1200 g/ha [9]

CC(C)[C@]12C[C@@H](OCc3c(F)cccc3F)[C@](C)(C[C@@H]1F)O2 [1-7, (1S,2R,4R,5S)-2-((2,6-difluorobenzyl)oxy)-5-fluoro-4-isopropyl-1-methyl-7-oxabicyclo[2.2.1]heptane]
≥ 80%: inhibition at 1200 g/ha [1] | inhibition at 1200 g/ha [2] | inhibition at 1200 g/ha [3] | inhibition at 75 g/ha [4] | inhibition at 75 g/ha [5] | pest or weed control at 1200 g/ha [6] | inhibition at 75 g/ha [11] | inhibition at 1200 g/ha [7] | inhibition at 1200 g/ha [8] | inhibition at 1200 g/ha [9] | inhibition at 1200 g/ha [12]

From EP4707280A1, “1,4-CINEOLE DERIVATIVE AND INTERMEDIATE THEREOF, HERBICIDE CONTAINING SAID DERIVATIVE AS ACTIVE INGREDIENT, METHOD FOR USING HERBICIDE, AND METHOD FOR PREPARING AGROCHEMICAL COMPOSITION” (HOKKO CHEMICAL INDUSTRY CO., LTD., priority 2023, dated 2024)
